From publication PMC6104039 (Nature Communications, 2018) come the findings set out here.

Structures are written as SMILES. “Also recorded” adds a separate entry of the source.

What is called IC50 is the concentration needed to halve the response being measured.

One data set deals with T1, human CerS4 (Homo sapiens, UniProt Q9HA82).
T1 construct: host or cells: U251
T1 sequence (Q9HA82 1-394): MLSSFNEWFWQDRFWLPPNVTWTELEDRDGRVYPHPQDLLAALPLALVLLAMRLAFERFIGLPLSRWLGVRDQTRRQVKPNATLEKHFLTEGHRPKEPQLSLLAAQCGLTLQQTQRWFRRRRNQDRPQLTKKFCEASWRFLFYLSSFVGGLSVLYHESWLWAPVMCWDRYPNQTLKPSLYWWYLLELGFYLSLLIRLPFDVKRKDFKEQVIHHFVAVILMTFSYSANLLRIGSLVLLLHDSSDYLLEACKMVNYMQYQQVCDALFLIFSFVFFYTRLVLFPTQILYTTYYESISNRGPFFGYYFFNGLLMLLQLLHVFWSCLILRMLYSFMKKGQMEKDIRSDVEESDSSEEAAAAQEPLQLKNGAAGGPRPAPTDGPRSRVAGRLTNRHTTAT
Nature of the data set: Ceramide synthase assay, NBD-dihydrosphingosine, C18:0-CoA; U251 cells expressing human CerS4. Format: biochemical. The conditions noted are these: inhibitor range 10 nM–100 μM; read-out: IC50 hCerS4. The method, then: (§1) Ceramide synthase assays were carried out using an HPLC-based assay with a fluorescent NBD-dihydrosphingosine substrate. All cell lines used for these assays were originally sourced from ATCC. […] Human CerS expression plasmids (pCMV6 plasmids from Origene) were transfected using FuGene-6 transfection reagent, and cells were harvested 24 h after transfection in 20 mM Hepes pH 7.4, 10 mM KCl, 1 mM dithiothreitol, 3 mM β-glycerophosphate, and EDTA-free complete protease inhibitor cocktail (Roche). Cells were sonicated in a Diagenode Bioruptor sonicating bath for 5 min, after which cell extracts were cleared by centrifugation at 800 × g for 10 min. Protein concentration in the supernatant was assayed using the bicinchoninic acid (BCA) assay, and the supernatant stored at −80 °C. COS cells were infected with lentiviral constructs expressing murine CerS1, 2, or 5, then homogenised as described above.
(§2) The reaction buffer consisted of 20 mM Hepes pH 7.4, 25 mM KCl, 2 mM MgCl2, 0.5 mM dithiothreitol, 0.1% fatty acid free BSA, 10 μM NBD-dihydrosphingosine and 50 μM fatty acid free BSA. C18:0-CoA was used as the fatty acyl substrate for CerS1 and CerS4; C24:1-CoA for CerS2; and C16:0-CoA for CerS5 and CerS6. All reactions were run in triplicate. Test inhibitors were added, after which reactions were started with the addition of 2.5–25 μg lysate protein (optimised depending on the particular CerS isoform being assayed). Assays were run for 30 min at 37 °C, and stopped with the addition of 200 μL methanol. The reaction mixture was transferred to a glass HPLC vial with 300 μL fused glass insert (Thermo Fisher Scientific) and NBD-dihydroceramide reaction products were analysed on a Thermo Scientific Surveyor HPLC connected to a Shimadzu RF-10AXL fluorescent detector (set to gain of 3). […] Data was acquired over a 12 min chromatography run using: solvent A, 0.2% formic acid, 2 mM ammonium formate in water; solvent B, 0.2% formic acid, 1 mM ammonium formate in methanol. The gradient started at 20:80 A/B, increasing to 5:95 A/B over 2 min, then to 100% B over 6 min. The gradient was then held at 100% B for 2 min, before re-equilibration to 20:80 A/B for a further 2 min. Peak areas were integrated using Xcalibur software (Thermo Fisher Scientific).

Another data set addresses T2, murine CerS5 (Mus musculus, UniProt Q9D6K9).
T2 construct: expressed in transfected cells; host or cells: COS cells (lentiviral infection)
T2 sequence (Q9D6K9 1-414): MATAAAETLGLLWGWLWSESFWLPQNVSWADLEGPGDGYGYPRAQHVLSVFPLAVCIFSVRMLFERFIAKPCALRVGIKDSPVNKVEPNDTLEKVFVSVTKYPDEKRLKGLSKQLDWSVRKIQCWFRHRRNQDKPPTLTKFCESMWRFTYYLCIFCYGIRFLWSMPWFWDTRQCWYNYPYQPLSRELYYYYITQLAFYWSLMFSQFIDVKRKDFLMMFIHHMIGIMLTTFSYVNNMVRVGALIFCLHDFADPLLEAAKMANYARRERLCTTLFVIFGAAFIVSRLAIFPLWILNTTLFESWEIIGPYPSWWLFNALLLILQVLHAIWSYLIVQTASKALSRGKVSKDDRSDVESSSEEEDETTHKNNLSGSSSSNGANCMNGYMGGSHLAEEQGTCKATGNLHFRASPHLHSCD
The data set is described as follows: Ceramide synthase assay, NBD-dihydrosphingosine, C16:0-CoA; COS cells expressing murine CerS5. Format: biochemical. The conditions noted are these: inhibitor range 10 nM–100 μM; read-out: IC50 mCerS5. As to the method: as §1, §2

The next data set deals with T3, murine CerS1 (Mus musculus, UniProt P27545).
T3 construct: expressed in transfected cells; host or cells: COS cells (lentiviral infection)
T3 sequence (P27545 whole entry): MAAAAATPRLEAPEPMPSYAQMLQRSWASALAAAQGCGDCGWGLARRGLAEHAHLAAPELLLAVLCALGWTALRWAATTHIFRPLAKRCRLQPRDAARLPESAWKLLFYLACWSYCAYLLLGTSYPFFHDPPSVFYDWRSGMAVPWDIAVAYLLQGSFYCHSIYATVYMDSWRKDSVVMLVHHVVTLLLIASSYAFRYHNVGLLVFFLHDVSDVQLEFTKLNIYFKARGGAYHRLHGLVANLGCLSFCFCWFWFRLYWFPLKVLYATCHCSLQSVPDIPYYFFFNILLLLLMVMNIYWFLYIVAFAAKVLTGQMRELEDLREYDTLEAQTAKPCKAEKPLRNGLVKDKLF
The data set is described as follows: Ceramide synthase assay, NBD-dihydrosphingosine, C18:0-CoA; COS cells expressing murine CerS1. Format: biochemical. Conditions: inhibitor range 10 nM–100 μM; read-out: IC50 mCerS1. The method, then:
as §1
The reaction buffer consisted of 20 mM Hepes pH 7.4, 25 mM KCl, 2 mM MgCl2, 0.5 mM dithiothreitol, 0.1% fatty acid free BSA, 10 μM NBD-dihydrosphingosine and 50 μM fatty acid free BSA. […] The reaction mixture was transferred to a glass HPLC vial with 300 μL fused glass insert (Thermo Fisher Scientific) and NBD-dihydroceramide reaction products were analysed on a Thermo Scientific Surveyor HPLC connected to a Shimadzu RF-10AXL fluorescent detector (set to gain of 3). […]

Another data set deals with HEK293 cells. The data set is described as follows: Detection of the phosphate of the compound in cultured cells, LC-MS/MS. Format: in vitro ADME. Conditions: 1 µM, 2 h. The method, then:
LC-MS/MS was performed on a TSQ Quantum Access triple quadrupole mass spectrometer in positive ion mode, coupled to an Accela UPLC system (Thermo Scientific). Extracts (20 μL) were separated on a 2 × 100 mm Eclipse XDB-C8 column with 1.8 μm particle size (Agilent Technologies), using a 7.5 min binary HPLC gradient: 0 min, 70% B ([…]); 1.5 min, 70% B; 3.5 min, 95% B; 4 min, 95% B; 4.5 min, 70% B; 7.5 min 70% B. Mobile phase A: 2 mM ammonium formate/1% formic acid in water; mobile phase B: 1 mM ammonium formate/1% formic acid in methanol. The flow rate was 0.4 mL min^−1, increasing to 0.5 mL min^−1 from 5–7 min, and column oven 30 °C. […] Visualisation and quantification of peaks was performed using Thermo Fisher’s XCalibur software v2.2.
Supplementary Figure 8. P053 is not phosphorylated in situ or in vivo. (a-b) HEK293 cells […]
LC-MS/MS analysis. Chromatograms for (a) FTY720 and its phosphate, and (b) P053 and its putative phosphate are shown. […]
mg/kg/day for 6 weeks, corresponding to a plasma concentration of ~300 nM. No peak is […]
(1 picture or pasted object on this page, not shown here)

For `CCCC[C@@H](C)[C@@H](OC(=O)C[C@@H](CC(=O)O)C(=O)O)[C@H](C[C@@H](C)C[C@H](O)CCCC[C@@H](O)C[C@H](O)[C@H](C)N)OC(=O)C[C@@H](CC(=O)O)C(=O)O` [FB1, reference compound], the concentration for half-maximal inhibition (IC50) at human CerS4 is 0.92 ± 0.06 µM; on murine CerS5, 0.5 ± 0.05 µM.

For `CCCCCCCCc1ccc(CCC(N)(CO)CO)cc1` [FTY720, reference compound], the IC50 at murine CerS1 worked out at 5.6 ± 0.05 µM; on human CerS4, 26 ± 0.18 µM; on murine CerS5 it was 15 ± 0.07 µM. The “phosphate of the compound in cultured HEK293 cells” value in the data set with HEK293 cells is on record as “definitive peak; also recorded: clearly detected”.

Regarding `C[C@@](N)(CO)CCc1ccc(OCc2ccccc2)cc1` [G024, (2S)-2-amino-4-(4′-benzyloxyphenyl)-2-methyl-1-butanol], the IC50 at human CerS4 came to 18 ± 0.12 µM; on murine CerS5, 24.3 ± 0.22 µM.

For `C[C@@](N)(CO)CCc1ccc(OCc2ccc(Cl)c(Cl)c2)cc1` [P053, (S)-2-amino-4-(4-(3,4-dichlorobenzyloxy)phenyl)-2-methylbutan-1-ol], the results for the IC50 on murine CerS1, at human CerS4 and at murine CerS5 were 0.46 ± 0.08 µM, 17.2 ± 0.09 µM and 7.2 ± 0.1 µM, respectively. In addition, the “phosphate of the compound in cultured HEK293 cells” value in the data set with HEK293 cells is “only background signal; also recorded: not detected”.
